In ChEMBL document CHEMBL2401637, “The identification of novel p38α isoform selective kinase inhibitors having an unprecedented p38α binding mode” (Bioorg Med Chem Lett, 2013):

assay: Aqueous solubility of the compound at pH 6.5; type: physicochemical

solubility, < 1 µg/mL:
Cc1ccc(C(=O)NC2CC2)cc1NC(=O)c1ccc(-c2ccc(Cl)cc2)s1, Cc1ccc(C(=O)NC2CC2)cc1NC(=O)c1ccc(-c2cccc(Cl)c2)s1, Cc1ccc(C(=O)NC2CC2)cc1NC(=O)c1ccc(-c2ccccc2Cl)s1
